This is an account of results in PMC4727990 (Bioorganic & medicinal chemistry letters, 2015).

A word on the IC50: it is the concentration that inhibits the measured activity by half. A low value points to greater potency in that assay.

Assay [1] deals with ASCT2. To be noted: cited from earlier work.
Assay [2] concerns the target ASCT2. The conditions noted are these: read-out: apparent affinity; inhibitor of ASCT2; cited from earlier work.
Assay [3] has as its target T1, ASCT2 (Rattus norvegicus, UniProt D3ZJ25).
T1 sequence (D3ZJ25 1-555): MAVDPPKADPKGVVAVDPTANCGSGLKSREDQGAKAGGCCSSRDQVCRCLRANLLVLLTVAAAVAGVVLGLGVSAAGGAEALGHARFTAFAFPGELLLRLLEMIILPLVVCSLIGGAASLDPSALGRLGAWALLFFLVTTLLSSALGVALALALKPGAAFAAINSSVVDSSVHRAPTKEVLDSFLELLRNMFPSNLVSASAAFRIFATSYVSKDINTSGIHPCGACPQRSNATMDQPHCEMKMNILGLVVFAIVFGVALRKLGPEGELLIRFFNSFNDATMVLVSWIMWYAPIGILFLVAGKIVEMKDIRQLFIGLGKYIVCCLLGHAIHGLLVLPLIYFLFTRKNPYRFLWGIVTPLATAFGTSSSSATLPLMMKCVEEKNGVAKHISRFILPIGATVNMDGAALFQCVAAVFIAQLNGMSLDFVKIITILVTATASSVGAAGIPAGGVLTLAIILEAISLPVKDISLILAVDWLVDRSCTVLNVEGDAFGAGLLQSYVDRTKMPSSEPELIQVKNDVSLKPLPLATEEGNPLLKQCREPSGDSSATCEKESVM
Nature of the assay: ASCT2-mediated 3H-glutamine uptake in C6 cells. Format: cell-based.

Consider `N[C@@H](CCC(=O)Nc1ccc([N+](=O)[O-])cc1)C(=O)O` [Compound 1, L-γ-glutamyl-p-nitroanilide], for which the “potency against ASCT2” value in the assay on ASCT2 [1] is “modest potency in the low millimolar range”. For the compound `N[C@@H](COC(=O)c1ccc(-c2ccccc2)cc1)C(=O)O` [Compound 3, O-(4-phenylbenzoyl)-L-serine], the Ki at ASCT2 [2] was 30 µM. With `Cc1cccc(COc2ccccc2CN(CC[C@H](N)C(=O)O)Cc2ccccc2OCc2cccc(C)c2)c1` [Compound 17], the IC50 on ASCT2 [3] was determined as 9 µM. In the case of “N-(2-(morpholinomethyl)phenyl)-L-glutamine [Compound 2]”, the “improvement of activity against ASCT2 compared to GPNA” value with ASCT2 [1] was “three-fold improved activity”.
